Patent publication US20210324041A1, “COMBINATION THERAPIES” (Shattuck Labs, Inc., priority 2018, published 2021)

Key:
[1] = test system: CT26 (murine colon carcinoma) tumor cells; assay: In vivo anti-tumor activity of combinations of antibodies directed to immune checkpoint molecules and chimeric proteins (CT26 tumor model); design: species or system BALB/C mice; conditions: for tumor volume: relative to vehicle, until the 35th day, antibodies three doses of 100 μg, chimeric protein three doses of 300 μg
Procedure: The in vivo ability of specific combinations of antibodies directed to immune checkpoint molecules and chimeric proteins to target and reduce tumor volume was determined.
BALB/C mice were inoculated with 500,000 CT26 (murine colon carcinoma) tumor cells. Eight days after inoculation, there was no significant difference between starting tumor volumes among the mice, i.e., volumes were approximately 100 mm^3. Specific combinations were included: anti-CTLA-4 (9D9); anti-PD-1 (RMP1-14); anti-OX40 (OX86); PD1-Fc-OX40L; CSF1R-Fc-CD40L (FIG. 3B); anti-CTLA-4 then anti-PD1; anti-CTLA-4 then anti-OX40; anti-CTLA-4 then PD1-Fc-OX40L; anti-CTLA-4 then CSF1R-Fc-CD40L (FIG. 3C); PD1-Fc-OX40L then anti-CTLA-4; and CSF1R-Fc-CD40L then anti-CTLA-4 (FIG. 3D); anti-CTLA-4 then CSF1R-Fc-CD40L; CSF1R-Fc-CD40L then anti-CTLA-4; and CSF1R-Fc-CD40L with anti-CTLA-4 (FIG. 3E and FIG. 3F); and anti-PD-1 then CSF1R-Fc-CD40L; CSF1R-Fc-CD40L then anti-PD-1; and CSF1R-Fc-CD40L with anti-PD-1 (FIG. 4A and FIG. 4B).
In the experiments shown in FIG. 3A to FIG. 3D, tumor sizes were assayed every other day until the 27th day after inoculation. Mice that rejected the tumor were re-challenged with a secondary tumor (300,000 CT26 tumor cells) on the opposing flank, and primary/secondary tumors continued to be measured. In the experiments shown in FIG. 3E to FIG. 4B, tumor sizes were assayed every other day until the 35th day after inoculation. Mice that rejected the tumor were re-challenged with a secondary tumor (300,000 CT26 tumor cells) on the opposing flank, and primary/secondary tumors continued to be measured. Antibodies were given as three doses of 100 μg, the chimeric protein was given as three doses of 300 μg, with antibodies administered before, after, and simultaneously with the chimeric protein (days 7, 9, & 11; or days 12, 14, & 16).

[2] = test system: CT26 (murine colon carcinoma) tumor cells; assay: In vivo anti-tumor activity of combinations of a STING agonist and chimeric proteins (CT26 tumor model); design: species or system BALB/C mice; conditions: for effectiveness of combination by order of administration: chimeric protein provided after DMXAA relative to DMXAA following the chimeric protein
Procedure: The in vivo ability of specific combinations of a stimulator of interferon genes (STING) agonist and chimeric proteins to target and reduce tumor volume was determined.
BALB/C mice were inoculated with 500,000 CT26 (murine colon carcinoma) tumor cells. Eight days after inoculation, there was no significant difference between starting tumor volumes among the mice, i.e., volumes were approximately 100 mm^3. Specific combinations were included: DMXAA; anti-PD-1 (RMP1-14); anti-OX40 (OX86); PD1-Fc-OX40L; CSF1R-Fc-CD40L (FIG. 8A); DMXAA then anti-PD1; DMXAA then anti-OX40; DMXAA then PD1-Fc-OX40L; DMXAA then CSF1R-Fc-CD40L (FIG. 8B); PD1-Fc-OX40L then […]; and CSF1R-Fc-CD40L then DMXAA (FIG. 8C). Tumor sizes were assayed every other day until the 27th day after inoculation. Mice that rejected the tumor were re-challenged with a secondary tumor (300,000 CT26 tumor cells) on the opposing flank, and primary/secondary tumors continued to be measured.

[3] = test system: various cytokines (e.g., CCL4, IL-18, IL-23, and IL-10); assay: In vivo serum cytokine expression in mice (Luminex); conditions: murine CSF1R-Fc-CD40L, relative to vehicle, FIG. 10
Procedure: (§1) The ability of the CSF1R-Fc-CD40L chimeric protein to induce in vivo cytokine expression in mice and in a non-human primate (Cynomolgus Macaque) was determined.
(§2) Mice were administered a vehicle or the murine CSF1R-Fc-CD40L chimeric protein and Cynomolgus Macaques were administered a vehicle or the human CSF1R-Fc-CD40L chimeric protein and the relative amount of various cytokines (e.g., CCL4, IL-18, IL-23, and IL-10) were detected and quantified.

[4] = test system: various cytokines (e.g., CCL4, IL-18, IL-23, and IL-10); assay: In vivo serum cytokine expression in Cynomolgus Macaques (Luminex); design: species or system Cynomolgus Macaque; conditions: monkeys; human CSF1R-Fc-CD40L; relative to vehicle; FIG. 10
Procedure: as §1, §2

In vivo toxicity in mice = assay: In vivo toxicity in mice
Procedure: as §2

[5] = In vivo toxicity in monkeys
Procedure: as §2

Molecule: CSF1R-Fc-CD40L: chimeric protein: extracellular region of CSF1R, linker comprising a hinge-CH2-CH3 Fc region, extracellular region of CD40L; murine and human versions used
- anti-tumor effects compared among treatment groups ([1]; FIG. 3E (anti-CTLA-4 series)): Roughly comparable amounts of anti-tumor effects
- anti-tumor effects compared among treatment groups ([1]; FIG. 4A (anti-PD-1 series)): Roughly comparable amounts of anti-tumor effects
- survivors ([1]; by 30 days after inoculation): no survivors
- improvement in tumor volume reduction by order of administration ([1]; chimeric protein administered after the anti-CTLA-4 antibody, FIG. 3C, 3D): most significant improvement
- tumor volume ([1]; FIG. 3E (anti-CTLA-4 series)): effective in reducing tumor volume
- tumor volume ([1]; FIG. 4A (anti-PD-1 series)): effective in reducing tumor volume
- effectiveness of combination by order of administration [2]: more effective
- serum cytokine levels [3]: greatly enhanced
- serum cytokine levels [4]: greatly enhanced
- in vivo toxicity (In vivo toxicity in mice): no in vivo toxicity was observed
- in vivo toxicity [5]: no in vivo toxicity was observed

Molecule: Cc1ccc2c(=O)c3cccc(CC(=O)O)c3oc2c1C [DMXAA, 5,6-dimethylxanthenone-4-acetic acid, reference compound]
- anti-tumor activity as a monotherapy ([2]; FIG. 8A): effective anti-tumor agent

B1: PD1-Fc-OX40L: chimeric protein: extracellular domain of PD-1, linker comprising a hinge-CH2-CH3 Fc domain, extracellular domain of OX40L (protein)
chain: LDSPDRPWNPPTFSPALLVVTEGDNATFTCSFSNTSESFVLNWYRMSPSNQTDKLAAFPEDRSQPGQDCRFRVTQLPNGRDFHMSVVRARRNDSGTYLCGAISLAPKAQIKESLRAELRVTERRAEVPTAHPSPSPRPAGQFQSKYGPPCPPCPAPEFLGGPSVFLFPPKPKDQLMISRTPEVTCVVVDVSQEDPEVQFNWYVDGVEVHNAKTKPREEQFNSTYRVVSVLTVLHQDWLSGKEYKCKVSSKGLPSSIEKTISNATGQPREPQVYTLPPSQEEMTKNQVSLTCLVKGFYPSDIAVEWESNGQPENNYKTTPPVLDSDGSFFLYSRLTVDKSRWQEGNVFSCSVLHEALHNHYTQKSLSLSLGKIEGRMDQVSHRYPRIQSIKVQFTEYKKEKGFILTSQKEDEIMKVQNNSVIINCDGFYLISLKGYFSQEVNISLHYQKDEEPLFQLKKVRSVNSLMVASLTYKDKVYLNVTTDNTSLDDFHVNGGELILIHQNPGEFCVL
- effectiveness of combination by order of administration [2]: more effective
